Experimental data from patent publication US20250066341A1 (CHIESI FARMACEUTICI S.P.A., priority 2021, published 2025).

molecular target: T1, human recombinant LPA1 expressed in CHO cells (Homo sapiens, UniProt Q92633); assay: FLIPR calcium mobilization assay, LPA1 antagonism in CHO-hLPA1 cells; format: cell-based; settings: inhibition of LPA EC80 Ca2+ response, 30 min pre-incubation, expressed as range of activity
T1 construct: expressed in transfected cells; host or cells: CHO cells (CHO-hLPA1 cell line)
T1 sequence (Q92633 whole entry): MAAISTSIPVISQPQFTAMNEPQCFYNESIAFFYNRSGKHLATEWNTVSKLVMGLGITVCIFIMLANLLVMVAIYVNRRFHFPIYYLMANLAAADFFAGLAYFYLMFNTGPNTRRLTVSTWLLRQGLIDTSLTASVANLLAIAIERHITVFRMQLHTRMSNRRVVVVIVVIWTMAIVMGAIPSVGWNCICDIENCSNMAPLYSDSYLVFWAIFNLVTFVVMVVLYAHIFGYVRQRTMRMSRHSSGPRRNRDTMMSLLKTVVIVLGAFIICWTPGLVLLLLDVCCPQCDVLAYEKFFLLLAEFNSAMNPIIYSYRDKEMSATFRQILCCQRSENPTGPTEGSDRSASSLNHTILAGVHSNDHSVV
How it was run: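 CHO-hLPA1 cells loaded with 5 μM Cal-520 AM plus 2.5 mM probenecid, 30 min at 37 °C, then pre-incubated 30 min at 37 °C with antagonist (11-point CRC, 0.5% DMSO final) before LPA at EC80. Baseline-subtracted peak fluorescence normalised to % inhibition; pIC50 from four-parameter logistic fit.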

IC50, 0.05 to 0.25 µM:
CCOc1cncc(Nc2c(-c3ccc(OC[C@H]4CCCC[C@@H]4C(=O)O)c(C)n3)nnn2C)n1 [Compound 72, (1S,2S)-2-(((6-(5-((6-ethoxypyrazin-2-yl)amino)-1-methyl-1H-1,2,3-triazol-4-y1)-2-methylpyridin-3-yl)oxy)methyl)cyclohexane-1-carboxylic acid]
Cc1nc(-c2nnn(C)c2CNc2cncc(OC(C)C)n2)ccc1OC[C@H]1CCCC[C@@H]1C(=O)O [Compound 73]
CCCN(C)C(=O)OCc1c(-c2ccc(OC[C@H]3CCCC[C@@H]3C(=O)O)c(C)n2)nnn1C [Compound 76, (1S,2S)-2-(((2-methyl-6-(1-methyl-5-(((methyl(propyl)carbamoyl)oxy)methyl)-1H-1,2,3-triazol-4-yl)pyridin-3-yl)oxy)methyl)cyclohexane-1-carboxylic acid]

IC50, < 0.05 µM:
CCC[C@@H](C)OC(=O)Nc1c(C)noc1-c1ccc(OC[C@H]2CCCC[C@@H]2C(=O)O)c(C)n1 [Compound 70]
Cc1nc(-c2nnn(C)c2Nc2cncc(OC(C)C)n2)ccc1OC[C@H]1CCCC[C@@H]1C(=O)O [Compound 71, (1S,2S)-2-(((6-(5-((6-isopropoxypyrazin-2-yl)amino)-1-methyl-1H-1,2,3-triazol-4-yl)-2-methylpyridin-3-yl)oxy)methyl)cyclohexane-1-carboxylic acid]
Cc1nc(-c2onc(C)c2COC(=O)N(C)C2CCCC2)ccc1OC[C@H]1CCCC[C@@H]1C(=O)O [Compound 74, (1S,2S)-2-(((6-(4-(((cyclopentyl(methyl)carbamoyl)oxy)methyl)-3-methylisoxazol-5-yl)-2-methylpyridin-3-yl)oxy)methyl)cyclohexane-1-carboxylic acid]
CCCN(C)C(=O)OCc1c(C)noc1-c1ccc(OC[C@H]2CCCC[C@@H]2C(=O)O)c(C)n1 [Compound 75, (1S,2S)-2-(((2-methyl-6-(3-methyl-4-(((methyl(propyl)carbamoyl)oxy)methyl)isoxazol-5-y1)pyridin-3-yl)oxy)methyl)cyclohexane-1-carboxylic acid]
Cc1noc(-c2ccc(OCC3CCCCC3C(=O)O)cc2)c1NC(=O)O[C@H](C)c1ccccc1Cl (stereo partly drawn) [Compound 77, 2-((4-(4-((((R)-1-(2-chlorophenyl)ethoxy)carbonyl)amino)-3-methylisoxazol-5-yl)phenoxy)methyl)cyclohexane-1-carboxylic acid]
Cc1noc(-c2ccc(OC[C@H]3CCCC[C@@H]3C(=O)O)cn2)c1NC(=O)O[C@H](C)c1ccccc1Cl [Compound 78, (1S,2S)-2-(((6-(4-((((R)-1-(2-chlorophenyl)ethoxy)carbonyl)amino)-3-methylisoxazol-5-yl)pyridin-3-yl)oxy)methyl)cyclohexane-1-carboxylic acid]
Cc1noc(-c2ccc(OCC3CCCCC3C(=O)O)cn2)c1NC(=O)O[C@H](C)c1ccccc1Cl (stereo partly drawn) [Compound 79, 2-(((6-(4-((((R)-1-(2-chlorophenyl)ethoxy)carbonyl)amino)-3-methylisoxazol-5-yl)pyridin-3-yl)oxy)methyl)cyclohexane-1-carboxylic acid]
Cc1nc(-c2onc(C)c2NC(=O)O[C@H](C)c2ccccc2Cl)ccc1OC[C@H]1CCCC[C@@H]1C(=O)O [Compound 80, (1S,2S)-2-(((6-(4-((((R)-1-(2-chlorophenyl)ethoxy)carbonyl)amino)-3-methylisoxazol-5-yl)-2-methylpyridin-3-yl)oxy)methyl)cyclohexane-1-carboxylic acid]
